Assay results reported in patent US20210101874A1, “MICROBIOCIDAL OXADIAZOLE DERIVATIVES” (SYNGENTA PARTICIPATIONS AG, priority 2017, published 2021).

How the values were obtained:
[1] = test system: Puccinia recondita f. sp. Tritici; test: Puccinia recondita f. sp. tritici / wheat / leaf disc preventative (brown rust); type: in vivo; conditions: foliar, 200 ppm in the applied formulation, wheat leaf segments cv. Kanzler, inoculated 1 day after application, compared to untreated, assessed 7 to 9 days after application, read-out: disease control
In short: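 Wheat cv. Kanzler leaf segments on agar sprayed with diluted compound, inoculated with brown rust spores 1 day later. Kept at 19° C., 75% rh, 12 h light/dark; percent disease control versus untreated segments scored 7 to 9 days after application, compounds tested at 200 ppm.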

[2] = test system: Puccinia recondita f. sp. Tritici; test: Puccinia recondita f. sp. tritici / wheat / leaf disc curative (brown rust); type: in vivo; conditions: foliar, 200 ppm in the applied formulation, wheat leaf segments cv. Kanzler, applied 1 day after inoculation, compared to untreated, assessed 6 to 8 days after application, read-out: disease control
In short: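 Wheat cv. Kanzler leaf segments on agar were inoculated with fungal spore suspension, held dark at 19° C and 75% RH, then sprayed 1 day later with formulated compound diluted in water. Incubation continued at 19° C, 75% RH, 12 h light/12 h dark; percent disease control versus untreated was scored 6 to 8 days after application.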

Phakopsora pachyrhizi = Phakopsora pachyrhizi / soybean / leaf disc preventative (Asian soybean rust); type: in vivo; conditions: foliar, 200 ppm in the applied formulation, soybean leaf disks, inoculated one day after application, compared to untreated, assessed 12 to 14 days after application, read-out: disease control
Description: Leaf disks or leaf segments of various plant species are cut from plants grown in a greenhouse. The cut leaf disks or segments are placed in multiwell plates (24-well format) onto water agar. The leaf disks are sprayed with a test solution before (preventative) or after (curative) inoculation. Compounds to be tested are prepared as DMSO solutions (max. 10 mg/ml) which are diluted to the appropriate concentration with 0.025% Tween20 just before spraying. The inoculated leaf disks or segments are incubated under defined conditions (temperature, relative humidity, light, etc.) according to the respective test system. A single evaluation of disease level is carried out 3 to 14 days after inoculation, depending on the pathosystem. Percent disease control relative to the untreated check leaf disks or segments is then calculated.
Soybean leaf disks are placed on water agar in multiwell plates (24-well format) and sprayed with the formulated test compound diluted in water. One day after application leaf discs are inoculated by spraying a spore suspension on the lower leaf surface. After an incubation period in a climate cabinet of 24-36 hours in darkness at 20° C. and 75% rh leaf disc are kept at 20° C. with 12 h light/day and 75% rh. The activity of a compound is assessed as percent disease control compared to untreated when an appropriate level of disease damage appears in untreated check leaf disks (12 to 14 days after application).
The following compounds at 200 ppm in the applied formulation give at least 80% disease control in this test when compared to untreated control leaf disks under the same conditions, which show extensive disease development.

[3] = test system: Glomerella lagenarium (Colletotrichum lagenarium); test: Glomerella lagenarium (Colletotrichum lagenarium) liquid culture / cucumber / preventative (anthracnose); type: cell-based; conditions: Colletotrichum orbiculare; 20 ppm in the applied formulation; conidia in PDB nutrient broth, 24° C.; 3 to 4 days after application; compared to untreated; read-out: disease control (inhibition of growth measured photometrically)
In short: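 Cryostored conidia in potato dextrose broth added to compound diluted from DMSO solution, 96-well format. Plates incubated at 24 °C. Growth inhibition read photometrically 3 to 4 days after application, as percent activity versus untreated check.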

Row | Structure (SMILES) | pest or weed control at 200 ppm [1] | pest or weed control at 200 ppm [2] | pest or weed control at 200 ppm (Phakopsora pachyrhizi) | inhibition at 20 ppm [3] | melting point
1 | CN(C)S(=O)(=O)NCc1ccc(-c2noc(C(F)(F)F)n2)cc1 [Compound 2.3, 3-[4-[(dimethyl-sulfamoylamino)methyl]phenyl]-5-(trifluoromethyl)-1,2,4-oxadiazole] | ≥ 80% | ≥ 80% | ≥ 80% | ≥ 80% | 105 to 107 °C
2 | CCS(=O)(=O)NCc1ccc(-c2noc(C(F)(F)F)n2)cc1 [Compound 2.2, N-[[4-[5-(trifluoromethyl)-1,2,4-oxadiazol-3-yl]phenyl]methyl] ethanesulfon-amide] | ≥ 80% | ≥ 80% | ≥ 80% | ≥ 80% | 127 to 129 °C
3 | O=S(=O)(CC1CCOC1)NCc1ccc(-c2noc(C(F)(F)F)n2)cc1 (stereo not shown) [Compound 3.4, 1-tetrahydrofuran-3-yl-N-[[4-[5-(trifluoromethyl)-1,2,4-oxadiazol-3-yl]phenyl]methyl] methanesulfonamide] | ≥ 80% | ≥ 80% | ≥ 80% | ≥ 80% | 117 to 122 °C
4 | CN(Cc1ccc(-c2noc(C(F)(F)F)n2)cc1)S(C)(=O)=O [Compound 1.11, N-methyl-N-[[4-[5-(trifluoromethyl)-1,2,4-oxadiazol-3-yl]phenyl]methyl] methanesulfonamide] | ≥ 80% | ≥ 80% | ≥ 80% | ≥ 80% | 103 to 105 °C
5 | CCS(=O)(=O)N(C)Cc1ccc(-c2noc(C(F)(F)F)n2)cc1 [Compound 1.13, N-methyl-N-[[4-[5-(trifluoromethyl)-1,2,4-oxadiazol-3-yl]phenyl]methyl] ethanesulfonamide] | ≥ 80% | ≥ 80% | ≥ 80% | ≥ 80% | 85 to 88 °C
6 | O=S(=O)(NCc1ccc(-c2noc(C(F)(F)F)n2)cc1)C1CC1 [Compound 3.2, N-[[4-[5-(trifluoromethyl)-1,2,4-oxadiazol-3-yl]phenyl]methyl] cyclopropanesulfon-amide] | ≥ 80% | ≥ 80% | ≥ 80% | ≥ 80% | 130 to 134 °C
7 | CCS(=O)(=O)N(Cc1ccc(-c2noc(C(F)(F)F)n2)cc1)OC [Compound 1.3, N-methoxy-N-[[4-[5-(trifluoromethyl)-1,2,4-oxadiazol-3-yl]phenyl]methyl] ethanesulfonamide] | ≥ 80% | ≥ 80% | ≥ 80% | ≥ 80% | 44 to 46 °C
8 | O=S(=O)(CC1CC1)NCc1ccc(-c2noc(C(F)(F)F)n2)cc1 [Compound 3.3, 1-cyclopropyl-N-[[4-[5-(trifluoromethyl)-1,2,4-oxadiazol-3-yl]phenyl]methyl] methanesulfonamide] | ≥ 80% | ≥ 80% | ≥ 80% | ≥ 80% | 140 to 144 °C
